Source: patent US5318776A, “Composition for preventing graying of the hair” (priority 1988, dated 1994)

Tests used:
[1] = Stability: residual amount of test compound after standing at 30° C. for 3 months, liquid chromatography; assay type: physicochemical; details: for stability (in words): Example 6; for stability (in words) / remaining at 2190 h: hair tonic; for remaining at 2190 h: read-out: Stability Residue(%)
Description: (§1) One month thereafter, regenerated hair was collected from a constant area and the rate (%) of generated grayed hair to all the number of hair collected was estimated. In addition, the aforementioned hair tonic type preparations were allowed to stand at 30° C. for 3 months and the residual amount of the test compounds therein was examined by liquid chromatography as well as the degree of change in smell was also evaluated by means of sensory test.
as §1, with “compositions” for “hair tonic type preparations”, “by” for “by means of”, “test. […] In addition, the abbreviation P means the averaged added molar number of ethylene oxide residues.” for “test.”

[2] = Sensory test: degree of change in smell after standing at 30° C. for 3 months;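 as to Stability S.E. (Sensory Evaluation): double circle means no smell deterioration on a four-grade scale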; assay type: physicochemical; details: for quality deterioration such as giving out of bad smell: Example 6, hair tonic; for Stability S.E. (Sensory Evaluation): Table V, 0.05% in hair tonic, 30° C., 3 months
Description: as §1
as §1, with “compositions” for “hair tonic type preparations”, “by” for “by means of”, “test. […] In addition, the abbreviation P means the averaged added molar number of ethylene oxide residues.” for “test.”

grayed hair = experiment: Half-Head technique application to scalp of men having grayed hair; assay type: in vivo, men (40 to 60 years old)
Description: Then, the effects of preventing graying of the hair and restoring grayed hair to its natural color were evaluated by comparing the conditions of the portions observed before and after the application of Samples and the results obtained were listed in the following Table VIII. […]
Then, the effectiveness of the hair cream of the invention and that of Comp.

[3] = test system: grayed hair (melanocytes); experiment: Inhibition of generation of grayed hair in stressed black mice; assay type: in vivo; details: Table V, 0.05% test compound in hair tonic, 0.1 ml twice a day, 1 month, control 17.1
Description: It is known that stress is one of the causes of graying of the hair. […] Moreover, the stability of the composition with time was also estimated.
as §1
as §1, with “compositions” for “hair tonic type preparations”, “by” for “by means of”, “test. […] In addition, the abbreviation P means the averaged added molar number of ethylene oxide residues.” for “test.”

[4] = Example 6, hair tonic as in Example 3
[5] = Table V, 0.05% in hair tonic, 30° C., 3 months

Row | stability (in words) [1] | Stability Residue(%) ([1]; Table V, 0.05% in hair tonic, 30° C., 3 months, 131400 min) | Stability S.E. (Sensory Evaluation) [2] | remaining at 2190 h [1, 5] | Structure (SMILES) | quality deterioration such as giving out of bad smell [2] | effect of preventing graying of the hair and restoring grayed hair to its natural color (in words) (grayed hair; [4]) | Rate of Grayed Hair (%) [3] | effect of preventing graying of the hair and restoring grayed hair to its natural color (in words) (grayed hair; Examples 3 to 5, Half-Head, men, 3 months)
1 | stable | 99.6% | .circleincircle. |  | Nc1ncnc2c1nc(SCCO)n2[C@@H]1O[C@@H]2COP(=O)([O-])O[C@H]2[C@H]1O.[Na+] [8-ethylhydroxythio cAMP-Na] | did not cause quality deterioration such as giving out of bad smell | the same effect of preventing graying of the hair and restoring grayed hair to its natural color as in Example 3 | 5.5% | 
2 | stable |  | .circleincircle. | 99.7% | Nc1ncnc2c1nc(O)n2[C@@H]1O[C@@H]2COP(=O)(O)O[C@H]2[C@H]1O [8-hydroxy cAMP-Na] | did not cause quality deterioration such as giving out of bad smell | the same effect of preventing graying of the hair and restoring grayed hair to its natural color as in Example 3 | 5.6% | 
3 |  |  | .circleincircle. | 99.9% | COc1nc2c(N)ncnc2n1[C@@H]1O[C@@H]2COP(=O)(O)O[C@H]2[C@H]1O [8-methoxy cAMP-Na] |  |  | 4.5% | remarkable effects of preventing graying of the hair and restoring grayed hair to its natural color
